Measured values from patent US20230051589A1, “COMPOUNDS AND COMPOSITIONS FOR TREATING CONDITIONS ASSOCIATED WITH NLRP ACTIVITY” (Novartis AG, priority 2018, published 2023).

The compounds below were run on IL-1β production in PMA-differentiated THP-1 cells (assay: IL-1β production in PMA-differentiated THP-1 cells stimulated with gramicidin (hTHP-1 assay, 2% fetal bovine serum; Procedures 1-3)). Settings: Homo sapiens, THP-1, hTHP-1 assay containing 2% fetal bovine serum, Table B2, class symbols; read-out: IC50.
Format: cell-based, human
In short: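 IL-1β released into supernatants was read by HTRF after 2 h gramicidin (5 μM) challenge. Before challenge, compounds (3-fold dilutions, top 100 μM, 0.37% DMSO) were given 1 h on THP-1 cells differentiated with PMA (20 ng/ml, 16-18 h) and held in 2% FBS medium.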
Work on `CC(C)(O)c1ncc(S(N)(=O)=NC(=O)Nc2cc3c(c4c2CCC4=O)CCC3)s1` (single isomer, unassigned) [Example 565, (R) or (S)-2-(2-hydroxypropan-2-yl)-N′-((1-oxo-1,2,3,6,7,8-hexahydro-as-indacen-4-yl)carbamoyl) thiazole-5-sulfonimidamide] yielded an IC50 of 5000 to 30000 nM.

Same assay, conditions: hTHP-1 assay containing 2% fetal bovine serum, Table B2, class symbols; read-out: IC50
`C=CCc1c2c(c(NC(=O)N=S(N)(=O)c3cc(C(C)(C)O)n(-c4ccccc4)n3)c3c1CCC3)CCC2` (single isomer, unassigned) [Example 566, (R) or (S)-N′-((8-allyl-1,2,3,5,6,7-hexahydro-s-indacen-4-yl)carbamoyl)-5-(2-hydroxypropan-2-yl)-1-phenyl-1H-pyrazole-3-sulfonimidaimde] showed an IC50 of 1000 to 5000 nM.
With `C=CCc1c2c(c(NC(=O)N=S(N)(=O)c3cc(C(C)(C)O)n(-c4ccccc4)n3)c3c1CCC3)CCC2` (single isomer, unassigned) [Example 567, (S) or (R)-N′-((8-allyl-1,2,3,5,6,7-hexahydro-s-indacen-4-yl)carbamoyl)-5-(2-hydroxypropan-2-yl)-1-phenyl-1H-pyrazole-3-sulfonimidaimde] the IC50 was 5000 to 30000 nM.
`NS(=O)(=NC(=O)Nc1c2c(cc3c1CCC3)CCC2)c1cnn2c1OCCC2` (single isomer, unassigned) [Example 568, (S) or (R)-N′-((1,2,3,5,6,7-hexahydro-s-indacen-4-yl)carbamoyl)-6,7-dihydro-5H-pyrazolo[5,1-b][1,3]oxazine-3-sulfonimidamide] was tested, and the IC50 was 5000 to 30000 nM.
Compound `NS(=O)(=NC(=O)Nc1c2c(cc3c1CCC3)CCC2)c1cnn2c1OCCC2` (single isomer, unassigned) [Example 569, (R) or (S)-N′-((1,2,3,5,6,7-hexahydro-s-indacen-4-yl)caramoyl)-6,7-dihydro-5H-pyrazolo[5,1 - b][1,3]oxazine-3-sulfonimidamide] has an IC50 of 40 to 200 nM.
For `CNCc1cc(F)c(S(N)(=O)=NC(=O)Nc2c3c(cc4c2CCC4)CCC3)s1` (single isomer, unassigned) [Example 570, (R) or (S)-3-fluoro-N′-((1,2,3,5,6,7-hcxahydro-s-indacen-4-yl)carbamoyl)-5-((methylamino)methyl) thiophene-2-sulfonimidamide], the IC50 was 8 to 40 nM.
In the case of `CNCc1cc(F)c(S(N)(=O)=NC(=O)Nc2c3c(cc4c2CCC4)CCC3)s1` (single isomer, unassigned) [Example 571, (S) or (R)-3-fluoro-N′-((1,2,3,5,6,7-hcxahydro-s-indacen-4-yl)carbamoyl)-5-((methylamino)methyl) thiophene-2-sulfonimidamide], the IC50 is reported as 200 to 1000 nM.
`CC(C)(O)c1cnc(S(N)(=O)=NC(=O)Nc2c3c(cc4c2C(=O)CC4)CCC3)s1` (single isomer, unassigned) [Example 572, (R) or (S)-5-(2-hydroxypiopan-2-yl)-N′-((3-oxo-1,2,3,5,6,7-hexahydro-s-indacen-4-yl)carbamoyl)thiazole-2-sulfonimidamide] was tested, and the IC50 was 200 to 1000 nM.
Compound `CC(C)(O)c1cnc(S(N)(=O)=NC(=O)Nc2c3c(cc4c2C(=O)CC4)CCC3)s1` (single isomer, unassigned) [Example 573, (S) or (R)-5-(2-hydroxypiopan-2-yl)-N′-((3-oxo-1,2,3,5,6,7-hexahydro-s-indacen-4-yl)carbamoyl)thiazole-2-sulfonimidamide] has an IC50 of 5000 to 30000 nM.
In the case of `CC(C)(O)c1cc(S(N)(=O)=NC(=O)Nc2c3c(c(C#N)c4c2CCC4)CCC3)nn1-c1ccccc1` (single isomer, unassigned) [Example 574, (S) or (R)-N′-((8-cyano-1,2,3,5,6,7-hexahydro-s-indacen-4-yl)carbamoyl)-5-(2-hydroxypropan-2-yl)-1-pheny-1H-pyrazole-3-sulfonimidamide], the IC50 is reported as 5000 to 30000 nM.
Compound `CC(C)(O)c1cc(S(N)(=O)=NC(=O)Nc2c3c(c(C#N)c4c2CCC4)CCC3)nn1-c1ccccc1` (single isomer, unassigned) [Example 575, (R) or (S)-N′-((8-cyano-1,2,3,5,6,7-hexahydro-s-indacen-4-yl)carbamoyl)-5-(2-hydroxypropan-2-yl)-1-pheny-1H-pyrazole-3-sulfonimidamide] has an IC50 of 200 to 1000 nM.
